Experimental data published in patent US20080103170A1, “Nicotinic Acetylcholine Receptor Ligands” (AstraZeneca AB, priority 2004, published 2008).

Biological target: T1, α4 nAChR (Rattus norvegicus, UniProt P09483+P12390)
T1 construct: from tissue; host or cells: rat cortical brain membranes
Assay: Affinity at α4 nAChR by [125I]-IPH binding to rat cortical membranes
Conditions: saturation curves fitted to a one site model
Description: Assay for Affinity at an α4 nAChR Receptor by Measuring the Binding of […] Binding to Rat Cortical Membranes
A procedure modified from Martino-Barrows and Kellar (Mol Pharm (1987) 31:169-174) may be used. Rat cortical brain membranes are prepared as described in the [^125I]α-BTX binding assay, except that a 500-12000×g membrane fraction is prepared. Membranes (30-150 μg) are incubated with 30-100 pM of the epibatidine analog [^125I]-IPH ((+/−)-exo-2-(2-iodo-5-pyridyl)-7-azabicyclo-[2,2,1]heptane) together with test compound in HB for 1 hour at room temperature with gentle shaking. Membranes may be recovered as described for the [^125I]α-BTX binding assay. Non-specific binding may be determined by 100 μM carbachol. Typically specific binding is about 84%.
Analysis of Binding Data Obtained in α7 nAChR or α4 nAChR Receptor Assays
IC50 values and pseudo Hill coefficients (nH) may be calculated using the non-linear curve fitting program ALLFIT (DeLean A, Munson P J and Rodbard D (1977) Am. J. Physiol., 235:E97-E102). […] Ki values may be estimated using the general Cheng-Prusoff equation:
Ki=[IC50]/((2+ligand/KD)^n)^1/n−1)
where a value of n=1 is used whenever nH<1.5 and a value of n=2 is used when nH≧1.5. To account for variability, assays may be performed in triplicate and variability will typically be ±5%. Ki values may be determined using six to 11 drug concentrations.

T1 sequence (P12390 25-500): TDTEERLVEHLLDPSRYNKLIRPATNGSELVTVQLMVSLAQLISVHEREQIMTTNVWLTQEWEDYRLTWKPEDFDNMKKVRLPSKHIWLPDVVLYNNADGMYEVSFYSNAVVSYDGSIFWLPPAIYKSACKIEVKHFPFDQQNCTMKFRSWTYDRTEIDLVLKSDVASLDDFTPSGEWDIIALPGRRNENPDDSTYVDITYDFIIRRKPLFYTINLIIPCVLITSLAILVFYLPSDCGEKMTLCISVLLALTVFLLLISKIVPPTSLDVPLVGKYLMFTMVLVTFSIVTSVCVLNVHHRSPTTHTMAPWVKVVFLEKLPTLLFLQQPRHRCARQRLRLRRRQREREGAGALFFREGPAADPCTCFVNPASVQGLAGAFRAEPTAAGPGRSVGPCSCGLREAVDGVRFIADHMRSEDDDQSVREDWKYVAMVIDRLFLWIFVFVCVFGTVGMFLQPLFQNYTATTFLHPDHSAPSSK
T1 sequence (P09483 31-630): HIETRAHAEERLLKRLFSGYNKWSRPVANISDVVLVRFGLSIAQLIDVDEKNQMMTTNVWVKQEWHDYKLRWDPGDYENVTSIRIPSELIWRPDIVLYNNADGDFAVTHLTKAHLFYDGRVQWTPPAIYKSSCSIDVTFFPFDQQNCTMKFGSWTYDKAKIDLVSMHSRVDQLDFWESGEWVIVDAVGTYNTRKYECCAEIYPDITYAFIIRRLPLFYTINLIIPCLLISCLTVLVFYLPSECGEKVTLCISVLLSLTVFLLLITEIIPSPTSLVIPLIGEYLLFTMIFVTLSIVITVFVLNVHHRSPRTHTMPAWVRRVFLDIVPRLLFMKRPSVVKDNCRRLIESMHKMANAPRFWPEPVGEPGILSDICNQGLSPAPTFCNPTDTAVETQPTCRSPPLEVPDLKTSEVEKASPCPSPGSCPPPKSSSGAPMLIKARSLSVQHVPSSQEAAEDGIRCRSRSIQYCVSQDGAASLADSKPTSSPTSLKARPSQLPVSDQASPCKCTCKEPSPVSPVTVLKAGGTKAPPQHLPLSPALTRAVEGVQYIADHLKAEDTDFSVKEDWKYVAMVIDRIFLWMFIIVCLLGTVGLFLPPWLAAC

SMILES: Ic1ccc(C2CC3CCC2N3)cn1 (racemic) [[^125I]-IPH, (+/−)-exo-2-(2-iodo-5-pyridyl)-7-azabicyclo-[2,2,1]heptane]
- Kd: 0.064 nM
